Where a SMILES comes first, the peptide text is derived from it. [ ]: non-standard residue; d: D form. Ala(azulen-1-yl) = N[C@@H](Cc1ccc2cccccc1-2)C(=O)O; Trp(4-CN) = N#Cc1cccc2[nH]cc(C[C@H](N)C(=O)O)c12
Test system: U2OS cells
Test: Live cell fluorescence microscopy of peptide uptake
Conditions: 37 °C, excitation 340 nm
[1] = 50 µM peptide in OPTI-MEM, 20 min, 0.5% DMSO, washed once, ET460/50m (4CNW) or ET395/25x (AzAla) emission filter

| intracellular fluorescence (cell uptake) (50 µM peptide, 24 h, ET460/50m emission filter) | SMILES | intracellular fluorescence (cell uptake) [1] |
| --- | --- | --- |
|  | CC(=O)N[C@@H](Cc1c[nH]c2cccc(C#N)c12)C(=O)NCC(=O)N[C@@H](CCCNC(=N)N)C(=O)N[C@@H](CCCCN)C(=O)N[C@@H](CCCCN)C(=O)N[C@@H](CCCNC(=N)N)C(=O)N[C@@H](CCCNC(=N)N)C(=O)N[C@@H](CCC(N)=O)C(=O)N[C@@H](CCCNC(=N)N)C(=O)N[C@@H](CCCNC(=N)N)C(=O)N[C@@H](CCCNC(=N)N)C(=O)N1CCC[C@H]1C(=O)N[C@@H](CCC(N)=O)C(=O)N1CCC[C@H]1C(=O)N[C@@H](CCCCN)C(=O)N[C@@H](CCCCN)C(=O)N[C@@H](CCCCN)C(=O)N[C@@H](CCCNC(=N)N)C(=O)N[C@@H](CCCCN)C(=O)N[C@H](C(N)=O)C(C)C [4CNW‐P3] (Ac-[Trp(4-CN)]GRKKRRQRRRPQPKKKRKV-NH2) | considerable intracellular fluorescence |
| appreciable intracellular fluorescence | CC[C@H](C)[C@@H]1NC(=O)[C@H](Cc2c[nH]c3ccccc23)NC(=O)[C@H](Cc2c[nH]c3cccc(C#N)c23)NC(=O)[C@H](CC(=O)O)NC(=O)CNC(=O)[C@H](CO)NC(=O)[C@H](CC(=O)O)NC(=O)[C@H](CC(=O)O)NC(=O)[C@H](CC(C)C)NC(=O)[C@H](Cc2ccc(O)cc2)NC(=O)[C@H](CC(C)C)NC(=O)[C@@H](Cc2c[nH]c3ccccc23)NC(=O)CSC[C@@H](C(=O)NCC(N)=O)NC1=O [4CNW‐P4] |  |
|  | CC(=O)N[C@@H](Cc1ccc2cccccc1-2)C(=O)NCC(=O)N[C@@H](CCCNC(=N)N)C(=O)N[C@@H](CCCCN)C(=O)N[C@@H](CCCCN)C(=O)N[C@@H](CCCNC(=N)N)C(=O)N[C@@H](CCCNC(=N)N)C(=O)N[C@@H](CCC(N)=O)C(=O)N[C@@H](CCCNC(=N)N)C(=O)N[C@@H](CCCNC(=N)N)C(=O)N[C@@H](CCCNC(=N)N)C(=O)N1CCC[C@H]1C(=O)N[C@@H](CCC(N)=O)C(=O)N1CCC[C@H]1C(=O)N[C@@H](CCCCN)C(=O)N[C@@H](CCCCN)C(=O)N[C@@H](CCCCN)C(=O)N[C@@H](CCCNC(=N)N)C(=O)N[C@@H](CCCCN)C(=O)N[C@H](C(N)=O)C(C)C [AzAla‐P3] (Ac-[Ala(azulen-1-yl)]GRKKRRQRRRPQPKKKRKV-NH2) | considerable intracellular fluorescence |
